28 molecules from patent US7102009B2, “Substituted amine derivatives and methods of use” (Amgen Inc., priority 2001, dated 2006) can be followed below.

SMILES strings stand for the structures.

This assay concerns Human Umbilical Vein Endothelial cells (VEGF-stimulated HUVEC proliferation). Description: HUVEC Proliferation Assay (VEGF-stimulated). To be noted: VEGF 50 ng/mL, 72 h incubation, CyQuant readout, read-out: inhibited VEGF-stimulated HUVEC proliferation at a level below (IC50). It is filed as cell-based. The protocol:
Human Umbilical Vein Endothelial cells are purchased from Clonetics, Inc., as cryopreserved cells harvested from a pool of donors. These cells, at passage 1, are thawed and expanded in EBM-2 complete medium, until passage 2 or 3. The cells are trypsinized, washed in DMEM+10% FBS+antibiotics, and spun at 1000 rpm for 10 min. Prior to centrifugation of the cells, a small amount is collected for a cell count. After centrifugation, the medium is discarded, and the cells are resuspended in the appropriate volume of DMEM+10% FBS+antibiotics to achieve a concentration of 3×10^5 cells/mL. Another cell count is performed to confirm the cell concentration. The cells are diluted to 3×10^4 cells/mL in DMEM+10% FBS+antibiotics, and 100 μL of cells are added to a 96-well plate. The cells are incubated at 37° C. for 22 h.
Prior to the completion of the incubation period, compound dilutions are prepared. Five-point, five-fold serial dilutions are prepared in DMSO, at concentrations 400-fold greater than the final concentrations desired. 2.5 μL of each compound dilution are diluted further in a total of 1 mL DMEM+10% FBS+antibiotics (400× dilution). Medium containing 0.25% DMSO is also prepared for the 0 μM compound sample. At the 22-hour timepoint, the medium is removed from the cells, and 100 μL of each compound dilution is added. The cells are incubated at 37° C. for 2-3 h.
During the compound pre-incubation period, the growth factors are diluted to the appropriate concentrations. Solutions of DMEM+10% FBS+antibiotics, containing either VEGF or bFGF at the following concentrations: 50, 10, 2, 0.4, 0.08, and 0 ng/mL are prepared. For the compound-treated cells, solutions of VEGF at 550 ng/mL or bFGF at 220 ng/mL for 50 ng/mL or 20 ng/mL final concentrations, respectively, are prepared since 10 μL of each will be added to the cells (110 μL final volume). At the appropriate time after adding the compounds, the growth factors are added. VEGF is added to one set of plates, while bFGF is added to another set of plates. For the growth factor control curves, the media on wells B4-G6 of plates 1 and 2 are replaced with media containing VEGF or bFGF at the varying concentrations (50-0 ng/mL). The cells are incubated at 37° C. for an additional 72 h.
At the completion of the 72 h incubation period, the medium is removed, and the cells are washed twice with PBS. After the second wash with PBS, the plates are tapped gently to remove excess PBS, and the cells are placed at −70° C. for at least 30 min. The cells are thawed and analyzed using the CyQuant fluorescent dye (Molecular Probes C-7026), following the manufacturer's recommendations. The plates are read on a Victor/Wallac 1420 workstation at 485 nm/530 nm (excitation/emission). Raw data are collected and analyzed using a 4-parameter fit equation in XLFit. IC50 values are then determined.

Regarding `CC1(C)CN(CC2CCNCC2)c2cc(NC(=O)c3cccnc3Nc3ccc4cn[nH]c4c3)ccc21` [Example 41, N-[3,3-Dimethyl-1-(4-piperidylmethyl)indolin-6-yl][2-(1H-indazol-6-ylamino)(3-pyridyl)]carboxamide], the IC50 is below 0.05 µM.
With `CC(C)(C)c1ccc(NC(=O)c2cccnc2Nc2ccc3cn[nH]c3c2)cc1/C=C/CCN1CCCC1` [Example 55, N-[3-((1E)-4-Pyrrolidinylbut-1-enyl)-4-(tert-butyl)phenyl][2-(1H-indazol-6-ylamino)(3-pyridyl)]carboxamide], the IC50 was below 0.05 µM.
The figure for `CC(C)(C)c1ccc(NC(=O)c2cccnc2Nc2ccc3cn[nH]c3c2Br)cc1` [Example 22, N-[4-(tert-Butyl)phenyl]{2-[(7-bromo(1H-indazol-6-yl))amino](3-pyridyl)}carboxamide] is below 0.05 µM; for `CC1(C)NS(=O)(=O)c2cc(NC(=O)c3cccnc3Nc3ccc4cn[nH]c4c3)ccc21` [Example 76, N-(3,3-Dimethyl-1,1-dioxo-2,3-dihydro-1H-116-benzo[d]isothiazol-6-yl)-2-(1H-indazol-6-ylamino)-nicotinamide] it is below 0.05 µM; for `O=C(Nc1ccc(C(OC[C@@H]2CCCN2)(C(F)(F)F)C(F)(F)F)cc1)c1cccnc1Nc1ccc2cn[nH]c2c1` [Example 607, 2-(1H-Indazol-6-ylamino)-N-{4-[2,2,2-trifluoro-1-(pyrrolidin-2-ylmethoxy)-1-trifluoromethyl-ethyl]-phenyl}-nicotinamide] it is below 0.05 µM.
In the case of `CC(C)(C)c1ccc(NC(=O)c2cccnc2Nc2ccc3cn[nH]c3c2)cc1CCCN1CCOCC1` [Example 57, N-[4-(tert-Butyl)-3-(3-morpholin-4-ylpropyl)phenyl][2-(1H-indazol-6-ylamino)(3-pyridyl)]carboxamide] it was below 0.05 µM.
Consider `CC(C)(C)c1ccc(NC(=O)c2cccnc2Nc2ccc3cn[nH]c3c2)cc1OC[C@@H]1CCCN1` [Example 96, N-[4-tert-Butyl-3-(pyrrolidin-2-ylmethoxy)-phenyl]-2-(1H-indazol-6-ylamino)-nicotinamide], for which the IC50 was below 0.05 µM.
`O=C(Nc1ccc2ccn(CCN3CCOCC3)c2c1)c1cccnc1Nc1ccc2cn[nH]c2c1` [Example 62, [2-(1H-Indazol-6-ylamino)(3-pyridyl)]-N-[1-(2-morpholin-4-ylethyl)indol-6-yl]carboxamide]: the IC50 is below 0.05 µM.
The figure for `O=C(Nc1cc(OC2CCNCC2)cc(C(F)(F)F)c1)c1cccnc1Nc1ccc2cn[nH]c2c1` [Example 74, 2-(1H-Indazol-6-ylamino)-N-[3-(piperidin-4-yloxy)-5-trifluoromethyl-phenyl]-nicotinamide] is below 0.05 µM; for `CN1CCC[C@@H]1COc1cc(NC(=O)c2cccnc2Nc2ccc3cn[nH]c3c2)cc(C(F)(F)F)c1` [Example 577, 2-(1H-Indazol-6-ylamino)-N-(3-((((2R)-1-methyl-2-pyrrolidinyl)methyl)oxy)-5-(trifluoromethyl)phenyl)-3-pyridinecarboxamide] it is below 0.05 µM.
In the case of `CN1CC=C(c2cc(NC(=O)c3cccnc3Nc3ccc4cn[nH]c4c3)ccc2C(C)(C)C)CC1` [Example 23], the IC50 is below 0.05 µM.
The figure for `CC1(C)CNc2cc(NC(=O)c3cccnc3Nc3ccc4cn[nH]c4c3)ccc21` [Example 99, N-(3,3dimethyl-2,3-dihydro-1H-indol-6-yl)-2-(1H-indazol-6-ylamino)-nicotinamide] is below 0.05 µM; for `CC1(C)CN(C2CCNCC2)c2cc(NC(=O)c3cccnc3Nc3ccc4cn[nH]c4c3)ccc21` [Example 100, N-(3,3-Dimethyl-1-piperidin-4-yl-2,3-dihydro-1H-indol-6-yl)-2-(1H-indazol-6-ylamino)-nicotinamide] it is below 0.05 µM; for `CC1(C)CCC(C)(C)c2cc(NC(=O)c3cccnc3Nc3ccc4cn[nH]c4c3)ccc21` [Example 77, 2-(1H-Indazol-6-ylamino)-N-(5,5,8,8-tetramethyl-5,6,7,8-tetrahydro-naphthalen-2-yl)-nicotinamide] it is below 0.05 µM.
On to `O=C(Nc1ccc(C(F)(F)C(F)(F)F)c(OC[C@H]2CCCN2)c1)c1cccnc1Nc1ccc2cn[nH]c2c1` [Example 84, 2-(1H-Indazol-6-ylamino)-N-[4-pentafluoroethyl-3-(2R-pyrrolidin-2-ylmethoxy)-phenyl]-nicotinamide], for which the IC50 is below 0.05 µM.
The figure for `COc1ccc(NC(=O)c2cccnc2Nc2ccc3cn[nH]c3c2)cc1O` [Example 36, N-(3-Hydroxy-4-methoxyphenyl)[2-(1H-indazol-6-ylamino)(3-pyridyl)]carboxamide] is below 0.05 µM.
For `CN1CC=C(c2cc(NC(=O)c3cccnc3Nc3ccc4cn[nH]c4c3)cc(C(F)(F)F)c2)CC1` [Example 121, 2-(1H-Indazol-6-ylamino)-N-[3-(1-methyl-1,2,3,6-tetrahydro-pyridin-4-yl)-5-trifluoromethyl-phenyl]-nicotinamide], the IC50 was below 0.05 µM.
Regarding `CC1(C)CCNc2cc(NC(=O)c3cccnc3Nc3ccc4c(c3)C(=O)NC4)ccc21` [Example 629, N-(4,4-Dimethyl-1,2,3,4-tetrahydro-isoguinolin-7-yl)-2-(1-oxo-2,3-dihydro-1H-isoindol-4-ylamino)-nicotinamide], the IC50 is below 0.05 µM.
For `CC(C)(C)c1ccc(NC(=O)c2cccnc2Nc2ccc3cn[nH]c3c2)cc1CCCN1CCCC1` [Example 56, N-[4-(tert-Butyl)-3-(3-pyrrolidinylpropyl)phenyl][2-(1H-indazol-6-ylamino)(3-pyridyl)]carboxamide], the IC50 is below 0.05 µM.
For `O=C(Nc1ccc2c(c1)-c1nncn1CC2)c1cccnc1Nc1ccc2cn[nH]c2c1` [Example 39, [2-(1H-Indazol-6-ylamino)(3-pyridyl)]-N-(5,6,7-trihydro-1,2,4-triazolo[3,4-a]isoquinolin-2-yl)carboxamide], the IC50 is below 0.05 µM.
As to `CN1CCC[C@H]1COc1cc(NC(=O)c2cccnc2Nc2ccc3cn[nH]c3c2)ccc1C(F)(F)F` [Example 616, 2-(1H-indazol-6-ylamino)-N-(3-((((2S)-1-methyl-2-pyrrolidinyl)methyl)oxy)-4-(trifluoromethyl)phenyl)-3-pyridinecarboxamide], the IC50 is below 0.05 µM.
For the molecule `CC(C)(C)c1cccc(NC(=O)c2cccnc2Nc2ccc3cn[nH]c3c2)c1` [Example 10, N-[3-(tert-Butyl)phenyl][2-(1H-indazol-6-ylamino)(3-pyridyl)]carboxamide], the IC50 was below 0.05 µM.
In the case of `CC1(C)CNc2cc(NC(=O)c3cccnc3Nc3ccc4cn[nH]c4c3)ccc2O1` [Example 101, N-(2,2-Dimethyl-3,4-dihydro-2H-benzo[1,4]oxazin-6-yl)-2-(1H-indazol-6-ylamino)-nicotinamide] it was below 0.05 µM; in that of `O=C(Nc1ccc(C(F)(F)C(F)(F)F)cc1)c1cccnc1Nc1cccc2c1CNC2=O` [Example 602, 2-(1-Oxo-2,3-dihydro-1H-isoindol-4-ylamino)-N-(4-pentafluoroethyl-phenyl)-nicotinamide], below 0.05 µM.
On to `O=C(Nc1ccc(C(F)(F)C(F)(F)F)c(OCCN2CCCCC2)c1)c1cccnc1Nc1ccc2cn[nH]c2c1` [Example 81, 2-(1H-Indazol-6-ylamino)-N-[4-pentafluoroethyl-3-(2-piperidin-1-yl-ethoxy)-phenyl]-nicotinamide], for which the IC50 was below 0.05 µM.
On to `CC(C)(C)c1ccc(NC(=O)c2cccnc2Nc2cccc3c2CNC3=O)cc1` [Example 600, N-(4-tert-Butyl-phenyl)-2-(1-oxo-2,3-dihydro-1H-isoindol-4-ylamino)-nicotinamide], for which the IC50 was below 0.05 µM.
The figure for `O=C(Nc1ccc(C(F)(F)F)c(OC[C@H]2CCCN2)c1)c1cccnc1Nc1ccc2cn[nH]c2c1` [Example 85, 2-(1H-Indazol-6-ylamino)-N-[3-(pyrrolidin-2-ylmethoxy)-4-trifluoromethyl-phenyl]-nicotinamide] is below 0.05 µM; for `CN1CCC(Cc2cc(NC(=O)c3cccnc3Nc3ccc4cn[nH]c4c3)cc(C(F)(F)F)c2)CC1` [Example 72, 2-(1H-Indazol-6-ylamino)-N-[3-(1-methyl-piperidin-4-ylmethyl)-5-trifluoromethyl-phenyl]-nicotinamide] it is below 0.05 µM.
